Where two headings read alike, the source gives them in different places.
Assays:
HIV-1 NL4-3 RLuc = experiment: MT-2 spreading infection assay (inhibition of HIV-1 replication); conditions: for SI (CC50/EC50): from average values
Description: Inhibition of HIV-1 viral replication was assayed in a spreading infection using MT-2 cells and NL4-3 RLuc reporter virus. For dose-response curves, compounds were initially diluted with DMSO to 100-fold the starting concentration in a 96-well plate and subjected to a series of 3-fold dilutions in DMSO for a total of eight or nine dilutions. If a single compound concentration was tested, the compound was diluted to 100-fold the desired concentration in DMSO. Compounds were then diluted 50-fold with infection media prepared by diluting NL4-3 RLuc virus stock to 400 IU/100 μl with complete RPMI. Then, 100 μl of 50-fold-diluted compound was transferred to 20,000 MT-2 cells that were preseeded in 96-well plates in 100 μl of complete RPMI for a final volume of 200 μl, followed by incubation at 37°C for 96 h. The final MOI in infected plates was 0.02, and the final DMSO concentration in all wells was 1%. All assays were run with three replicates. For each replicate, one well received DMSO only, and one well received medium only for normalization and background correction. […] Plates were read on a luminescence plate reader (Synergy H1; BioTek Instruments, Inc.).
(§3) EC50 and CC50 values were determined in Excel using four-parameter logistic regression analysis of dose-response data generated from the viral inhibition or cytotoxicity assays, respectively. […] Average EC50 and CC50 values were calculated using the geometric mean and average values were reported with the geometric standard deviation (GSD).

in vitro = conditions: human
Description: (§4) For each viral inhibition assay, a cytotoxicity assay was performed in parallel on uninfected cells by adding 1/10 volume of alamarBlue (Thermo Fisher, Waltham, MA; DAL1199) to the plates, followed by thorough mixing. AlamarBlue-treated plates were incubated for 2 to 3 h at 37°C (the timing was optimized for the linear signal), mixed well, and read using a fluorescence plate reader with 560 nm and 590 nm as the excitation and emission settings, respectively (Synergy H1; BioTek Instruments, Inc.).
as §3

HIV-1 Gag = experiment: Biotin-Gag proximity ligation assay; format: cell-based; conditions: for biotin-Gag PLA spots/cell: 16 h
Description: (§1) For each treatment, one-half of a Grace Biolabs Culture Well silicone chamber (Millipore-Sigma; GBL103380) was attached to a cover glass (Carl Zeiss, Oberkochen, Germany; catalog no. 474030-9000-000) to create four chambers on the cover glass. Each chambered cover glass was placed into a well of a 6-well plate, and the chambers were coated with poly-L-lysine and allowed to dry overnight. The next day, ∼4 × 10^3 293T/17 or 293T-HIV cells were seeded into each chamber, followed by incubation at 37°C for 5 to 6 h. After the cells adhered, they were treated with compound or DMSO. At 16 h posttreatment, the cells were fixed for 15 min in 4% paraformaldehyde in PBS (pH 7.4), permeabilized in 0.5% (wt/vol) saponin in PBS (pH 7.4) for 10 min, and blocked in Duolink blocking solution (Millipore-Sigma) at 37°C for 30 min. The cells were incubated in primary antibodies using the following concentrations: for the Gag-biotin PLA, mouse αGag p24 was used at 0.2 μg/ml, and rabbit αbiotin was used at 4 μg/ml; for the biotin-ABCE1 PLA, rabbit αABCE1 was used at 0.3 μg/ml, and mouse αbiotin was used at 0.7 μg/ml; for the biotin-DDX6 PLA, rabbit αDDX6 was used at 0.5 μg/ml and mouse αbiotin was used at 0.3 μg/ml; for the ABCE1-DDX6 PLA, rabbit αABCE1 was used at 0.3 μg/ml, and mouse αDDX6 was used at 0.3 μg/ml; for the biotin-G3BP1 PLA, rabbit αG3BP1 was used at 0.025 μg/ml, and mouse αbiotin was used at 0.2 μg/ml; for the TIAR-G3BP1 PLA, rabbit αG3BP1 was used at 0.025 μg/ml, and mouse αTIAR was used at 0.025 μg/ml; for the biotin-XRN1 PLA, rabbit α XRN1 was used at 0.5 μg/ml, and mouse αbiotin was used at 0.2 μg/ml; and for the DDX6-XRN1 PLA, rabbit αXRN1 was used at 0.5 μg/ml, and mouse αDDX6 was used at 0.5 μg/ml. For the NI control PLA experiments, NI control antibodies from the relevant species were used at the same concentration as the primary antibody they replaced. Primary incubation was followed by incubation with Duolink reagents (Millipore-Sigma): oligonucleotide-linked secondary antibody, ligation mix, and red amplification/detection mix, with washes in between, in accordance with the Duolink protocol. For concurrent IF analysis following the final 1× PLA buffer B washes, cells were incubated for 30 min at room temperature with 1:1,000 Alexa Fluor 488-anti-mouse secondary antibody. Cover glasses were mounted using Duolink in situ mounting medium with DAPI (4′,6′-diamidino-2-phenylindole; Millipore-Sigma), sealed to the glass slides with clear nail polish, allowed to dry for 24 h at room temperature, and stored at −20°C. Imaging was performed with a Zeiss Axio Observer.Z1/7 deconvolution microscope using Zeiss Plan-Apochromat 63×/aperture 1.4 objective with oil immersion, with Zen 2.6 (blue edition) software. For quantification, 5 to 10 fields, each containing at least three IF-positive cells, were chosen at random and imaged using identical exposure times for each channel (100 to 150 ms for the PLA channel in red; 0.5 to 1 s for the IF channel in green, depending on the IF primary antibody; and 20 ms for the DAPI channel in blue). Images were captured as a Z-stack of 80 to 90 0.24-μm slices that included the entire cell body and 5 μm above and below the cell (∼20 μm total). To determine the number of PLA spots per cell, image stacks were processed as follows in Fiji ([96]). First, an in-focus slice from the IF channel was selected using the Find Focused Slices plugin within ImageJ (Q. Tseng, 2020 [https://sites.google.com/site/qingzongtseng/find-focus]), and thresholding was used to generate regions of interest (ROI) that contained only cells. The ROIs identified in the IF channel were applied to a maximum intensity z projection of the PLA channel, and PLA spots within the ROI were counted using the find maxima function in Fiji, with noise threshold optimized to identify only PLA spots. Nuclei from each field were counted manually to determine the number of cells. […]

ABCE1 = target: T1, ABCE1 (Homo sapiens, UniProt P61221); experiment: Biotin-ABCE1 proximity ligation assay; format: cell-based; conditions: for biotin-ABCE1 PLA spots/cell: 16 h
T1 construct: endogenous in cells; host or cells: 293T/17 and 293T-HIV cells
Description: as §1

DDX6 = target: T2, DDX6 (Homo sapiens, UniProt P26196); experiment: Biotin-DDX6 proximity ligation assay; format: cell-based; conditions: for biotin-DDX6 PLA spots/cell: 16 h
T2 construct: endogenous in cells; host or cells: 293T/17 and 293T-HIV cells
T2 sequence (P26196 1-483): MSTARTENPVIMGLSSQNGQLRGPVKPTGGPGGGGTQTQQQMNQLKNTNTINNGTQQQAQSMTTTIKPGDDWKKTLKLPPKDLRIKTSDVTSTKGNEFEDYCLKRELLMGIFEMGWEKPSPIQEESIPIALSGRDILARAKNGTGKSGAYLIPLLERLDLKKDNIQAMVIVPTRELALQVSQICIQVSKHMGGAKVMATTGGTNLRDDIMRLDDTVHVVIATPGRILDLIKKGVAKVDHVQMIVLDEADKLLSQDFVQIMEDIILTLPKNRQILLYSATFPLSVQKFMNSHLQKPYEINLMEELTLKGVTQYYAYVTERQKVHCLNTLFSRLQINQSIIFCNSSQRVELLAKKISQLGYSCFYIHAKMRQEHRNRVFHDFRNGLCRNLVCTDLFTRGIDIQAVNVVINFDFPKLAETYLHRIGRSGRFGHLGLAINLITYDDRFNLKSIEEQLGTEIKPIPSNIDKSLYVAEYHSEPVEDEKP
Description: as §1

G3BP1 = target: T3, G3BP1 (Homo sapiens, UniProt Q13283); experiment: Biotin-G3BP1 proximity ligation assay; format: cell-based; conditions: 293T-HIV; for PLA spots/cell (biotin-G3BP1 PLA): 10 μM, 16 h
T3 construct: endogenous in cells; host or cells: 293T-HIV cells
T3 sequence (Q13283 whole entry): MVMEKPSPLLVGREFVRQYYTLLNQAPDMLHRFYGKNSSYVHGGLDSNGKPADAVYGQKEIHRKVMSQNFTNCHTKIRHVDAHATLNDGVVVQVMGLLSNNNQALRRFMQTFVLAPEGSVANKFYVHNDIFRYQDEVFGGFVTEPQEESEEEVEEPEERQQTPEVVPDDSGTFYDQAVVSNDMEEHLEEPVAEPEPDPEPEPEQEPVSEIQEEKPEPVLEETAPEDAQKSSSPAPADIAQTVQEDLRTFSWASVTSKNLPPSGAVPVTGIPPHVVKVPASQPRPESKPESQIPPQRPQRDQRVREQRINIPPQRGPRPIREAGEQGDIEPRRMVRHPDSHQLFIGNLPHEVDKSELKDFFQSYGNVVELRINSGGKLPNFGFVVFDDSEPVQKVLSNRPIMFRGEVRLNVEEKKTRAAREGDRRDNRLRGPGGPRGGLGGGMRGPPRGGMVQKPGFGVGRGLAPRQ
Description: (§2) For each treatment, one-half of a Grace Biolabs Culture Well silicone chamber (Millipore-Sigma; GBL103380) was attached to a cover glass (Carl Zeiss, Oberkochen, Germany; catalog no. 474030-9000-000) to create four chambers on the cover glass. Each chambered cover glass was placed into a well of a 6-well plate, and the chambers were coated with poly-L-lysine and allowed to dry overnight. The next day, ∼4 × 10^3 293T/17 or 293T-HIV cells were seeded into each chamber, followed by incubation at 37°C for 5 to 6 h. After the cells adhered, they were treated with compound or DMSO. At 16 h posttreatment, the cells were fixed for 15 min in 4% paraformaldehyde in PBS (pH 7.4), permeabilized in 0.5% (wt/vol) saponin in PBS (pH 7.4) for 10 min, and blocked in Duolink blocking solution (Millipore-Sigma) at 37°C for 30 min. […] For quantification, 5 to 10 fields, each containing at least three IF-positive cells, were chosen at random and imaged using identical exposure times for each channel (100 to 150 ms for the PLA channel in red; 0.5 to 1 s for the IF channel in green, depending on the IF primary antibody; and 20 ms for the DAPI channel in blue). […] The ROIs identified in the IF channel were applied to a maximum intensity z projection of the PLA channel, and PLA spots within the ROI were counted using the find maxima function in Fiji, with noise threshold optimized to identify only PLA spots. Nuclei from each field were counted manually to determine the number of cells. […]

TIAR and G3BP1 = experiment: TIAR-G3BP1 proximity ligation assay in compound-treated cells; format: cell-based, human; conditions: 10 μM; 16 h; 293T-HIV
Description: as §2, with “DMSO.” for “DMSO. At 16 h posttreatment, the cells were fixed for 15 min in 4% paraformaldehyde in PBS (pH 7.4), permeabilized in 0.5% (wt/vol) saponin in PBS (pH 7.4) for 10 min, and blocked in Duolink blocking solution (Millipore-Sigma) at 37°C for 30 min.”

XRN1 = target: T4, XRN1 (Homo sapiens, UniProt Q8IZH2); experiment: Biotin-XRN1 proximity ligation assay; format: cell-based; conditions: 293T-HIV; for PLA spots/cell (biotin-XRN1 PLA): 10 μM, 16 h
T4 construct: endogenous in cells; host or cells: 293T-HIV cells
T4 sequence (Q8IZH2 whole entry): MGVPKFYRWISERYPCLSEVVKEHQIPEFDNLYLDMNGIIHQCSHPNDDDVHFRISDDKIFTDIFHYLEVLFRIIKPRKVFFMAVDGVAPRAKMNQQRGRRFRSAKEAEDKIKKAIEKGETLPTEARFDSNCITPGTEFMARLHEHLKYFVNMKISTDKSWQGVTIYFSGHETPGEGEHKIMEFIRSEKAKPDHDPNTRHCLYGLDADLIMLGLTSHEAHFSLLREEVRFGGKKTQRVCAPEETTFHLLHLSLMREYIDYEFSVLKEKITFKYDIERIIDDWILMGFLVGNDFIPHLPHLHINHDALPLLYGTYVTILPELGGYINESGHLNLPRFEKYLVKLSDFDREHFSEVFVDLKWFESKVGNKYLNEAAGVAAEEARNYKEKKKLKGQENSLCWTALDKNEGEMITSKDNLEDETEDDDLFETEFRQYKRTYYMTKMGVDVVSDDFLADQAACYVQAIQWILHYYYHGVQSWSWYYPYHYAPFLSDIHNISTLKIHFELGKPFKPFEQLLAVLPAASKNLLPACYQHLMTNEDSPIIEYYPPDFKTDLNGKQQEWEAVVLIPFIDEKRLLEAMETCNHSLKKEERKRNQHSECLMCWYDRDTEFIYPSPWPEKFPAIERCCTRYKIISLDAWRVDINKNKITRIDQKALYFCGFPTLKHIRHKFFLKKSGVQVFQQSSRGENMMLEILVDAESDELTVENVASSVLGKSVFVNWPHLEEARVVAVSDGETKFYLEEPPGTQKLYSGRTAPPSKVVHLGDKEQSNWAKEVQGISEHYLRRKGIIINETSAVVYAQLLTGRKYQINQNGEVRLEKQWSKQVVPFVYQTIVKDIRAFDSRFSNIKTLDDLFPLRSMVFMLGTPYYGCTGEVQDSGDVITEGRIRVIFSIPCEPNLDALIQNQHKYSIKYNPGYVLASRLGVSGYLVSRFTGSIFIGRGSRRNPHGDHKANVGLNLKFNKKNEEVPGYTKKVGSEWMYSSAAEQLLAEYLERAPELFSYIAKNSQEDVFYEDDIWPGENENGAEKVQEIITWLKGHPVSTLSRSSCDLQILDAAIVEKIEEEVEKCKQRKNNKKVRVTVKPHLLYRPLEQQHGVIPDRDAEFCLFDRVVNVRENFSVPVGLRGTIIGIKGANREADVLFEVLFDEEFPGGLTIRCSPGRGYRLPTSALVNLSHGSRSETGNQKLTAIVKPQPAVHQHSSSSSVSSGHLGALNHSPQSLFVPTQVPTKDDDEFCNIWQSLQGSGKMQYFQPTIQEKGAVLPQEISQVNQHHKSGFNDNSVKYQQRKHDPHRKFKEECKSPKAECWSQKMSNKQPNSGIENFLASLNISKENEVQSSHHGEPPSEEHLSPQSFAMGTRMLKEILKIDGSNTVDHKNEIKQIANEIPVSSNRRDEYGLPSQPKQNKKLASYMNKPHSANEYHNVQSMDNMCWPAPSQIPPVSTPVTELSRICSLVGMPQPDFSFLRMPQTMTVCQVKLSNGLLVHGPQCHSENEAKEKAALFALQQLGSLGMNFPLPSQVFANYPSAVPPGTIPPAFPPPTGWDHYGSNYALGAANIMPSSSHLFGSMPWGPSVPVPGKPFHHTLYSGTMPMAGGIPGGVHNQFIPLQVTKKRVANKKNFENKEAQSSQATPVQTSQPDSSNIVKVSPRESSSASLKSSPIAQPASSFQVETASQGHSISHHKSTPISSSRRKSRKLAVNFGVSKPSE
Description: as §2

DDX6 and XRN1 = experiment: DDX6-XRN1 proximity ligation assay in compound-treated cells; format: cell-based, human; conditions: 10 μM; 16 h; 293T-HIV
Description: as §2, with “DMSO.” for “DMSO. At 16 h posttreatment, the cells were fixed for 15 min in 4% paraformaldehyde in PBS (pH 7.4), permeabilized in 0.5% (wt/vol) saponin in PBS (pH 7.4) for 10 min, and blocked in Duolink blocking solution (Millipore-Sigma) at 37°C for 30 min.”

HIV-1 NL4-3 = format: cell-based; conditions: MT-2 cells, 37 weeks of selection
[1] = Human immunodeficiency virus 1, NL43, MT2

Description for MT-2 cells: as §4, §3

## COc1ccc(/C=C/C2NCCc3cc(OCc4ccccc4)c(OC)cc32)c(C)c1 (centres unmarked) [PAV-218]
MT-2 cells
  CC50 (μM): 9.7 ×/÷ 1.2 μM
HIV-1 NL4-3 RLuc; MT-2 cells
  SI (CC50/EC50): 66

## COc1ccc(/C=C/C2NCCc3cc(OCc4ccccc4)c(OC)cc32)cc1OCc1ccccc1 (centres unmarked) [PAV-220]
In vitro; CC50 (μM)
  CC50: 3.8 µM
HIV-1 NL4-3 RLuc; [1]
  EC50: 0.163 µM
HIV-1 NL4-3 RLuc; MT-2 cells
  SI (CC50/EC50): 23

## COc1cc2c(cc1OCc1ccccc1)CCNC2/C=C/c1ccccc1C (centres unmarked) [PAV-245]
In vitro; CC50 (μM)
  CC50: 3.6 µM
HIV-1 NL4-3 RLuc; [1]
  EC50: 0.755 µM
HIV-1 NL4-3 RLuc; MT-2 cells
  SI (CC50/EC50): 4.8

## COc1cc2c(cc1OCc1ccccc1)CCNC2/C=C/c1ccccc1 (centres unmarked) [PAV-492]
In vitro; CC50 (μM)
  CC50: > 10 µM
HIV-1 NL4-3 RLuc; [1]
  EC50: 1.54 µM
HIV-1 NL4-3 RLuc; MT-2 cells
  SI (CC50/EC50): > 6

## COc1ccc(/C=C/C2NCCc3cc(OCc4ccccc4)c(OC)cc32)cc1 (centres unmarked) [PAV-493]
In vitro; CC50 (μM)
  CC50: 21 µM
HIV-1 NL4-3 RLuc; MT-2 cells
  SI (CC50/EC50): 37

## COc1cc2c(cc1OCc1ccccc1)CCNC2/C=C/c1cccc(OCc2ccccc2)c1 (centres unmarked) [PAV-494]
In vitro; CC50 (μM)
  CC50: 4.1 µM
HIV-1 NL4-3 RLuc; [1]
  EC50: 0.244 µM
HIV-1 NL4-3 RLuc; MT-2 cells
  SI (CC50/EC50): 17

## N#CCC(NC(=O)CCOCCOCCNC(=O)CCCC[C@@H]1SCC2NC(=O)NC21)C(=O)NCCCCOc1ccccc1 (some centres unmarked) [PAV-543, reference compound]
HIV-1 Gag; 10 μM, 293T-HIV (HIV +)
  biotin-Gag PLA spots/cell: 9.3
ABCE1; 10 μM, 293T-HIV (HIV +)
  biotin-ABCE1 PLA spots/cell: 4.5
DDX6; 10 μM, 293T-HIV (HIV +)
  biotin-DDX6 PLA spots/cell: 12.6
G3BP1
  PLA spots/cell (biotin-G3BP1 PLA): 1.6
TIAR and G3BP1
  PLA spots/cell (TIAR-G3BP1 PLA): 51.5
XRN1
  PLA spots/cell (biotin-XRN1 PLA): 3.8
DDX6 and XRN1
  PLA spots/cell (DDX6-XRN1 PLA): 77.4
In vitro; CC50
  CC50: > 100 µM
HIV-1 NL4-3 RLuc; Human immunodeficiency virus 1, NL43, T-cell, read-out: EC50MT-2
  EC50: > 100 µM

## COc1cc(C)c(C=CC2NCCc3cc(OCc4ccccc4)c(OC)cc32)cc1OCCCCNC(=O)C(CC1(C)N=N1)NC(=O)CCOCCOCCNC(=O)CCCCC1SCC2NC(=O)NC21 (centres unmarked) [PAV-818]
HIV-1 Gag; 5 μM, 293T-HIV (HIV +)
  biotin-Gag PLA spots/cell: 32.6
HIV-1 Gag; 10 μM, 293T-HIV (HIV +)
  biotin-Gag PLA spots/cell: 51.5
HIV-1 Gag; 10 μM, uninfected 293T (HIV −)
  biotin-Gag PLA spots/cell: 7.1
HIV-1 Gag; 20 μM, 293T-HIV (HIV +)
  biotin-Gag PLA spots/cell: 111.8
HIV-1 Gag; both at 10 μM, 293T-HIV
  fold more biotin-Gag PLA spots than with PAV-543: 5.5 fold
ABCE1; 5 μM, 293T-HIV (HIV +)
  biotin-ABCE1 PLA spots/cell: 42.0
ABCE1; 10 μM, 293T-HIV (HIV +)
  biotin-ABCE1 PLA spots/cell: 64.2
ABCE1; 10 μM, uninfected 293T (HIV −)
  biotin-ABCE1 PLA spots/cell: 72.9
ABCE1; 20 μM, 293T-HIV (HIV +)
  biotin-ABCE1 PLA spots/cell: 104.7
ABCE1; both at 10 μM, 293T-HIV
  fold more biotin-ABCE1 PLA spots than with PAV-543: 14.3 fold
DDX6; 5 μM, 293T-HIV (HIV +)
  biotin-DDX6 PLA spots/cell: 47.4
DDX6; 10 μM, 293T-HIV (HIV +)
  biotin-DDX6 PLA spots/cell: 65.1
DDX6; 10 μM, uninfected 293T (HIV −)
  biotin-DDX6 PLA spots/cell: 58.0
DDX6; 20 μM, 293T-HIV (HIV +)
  biotin-DDX6 PLA spots/cell: 82.9
DDX6; 293T-HIV
  fold more biotin-DDX6 PLA spots than in PAV-543-treated or DMSO-treated cells: ~5.1 fold
G3BP1
  PLA spots/cell (biotin-G3BP1 PLA): 6.3
G3BP1; PLA
  colocalization with the stress granule protein G3BP1: does not colocalize
TIAR and G3BP1
  PLA spots/cell (TIAR-G3BP1 PLA): 35.0
XRN1
  PLA spots/cell (biotin-XRN1 PLA): 5.3
XRN1; PLA
  colocalization with the P-body marker XRN1: does not colocalize
DDX6 and XRN1
  PLA spots/cell (DDX6-XRN1 PLA): 35.2
In vitro; CC50
  CC50: ~30 µM
HIV-1 NL4-3 RLuc; Human immunodeficiency virus 1, NL43, T-cell, 96 h, read-out: EC50 for inhibition of HIV-1 replication
  EC50: 0.951 µM
HIV-1 NL4-3 RLuc; MT-2 cells, from the shown dose-response curve
  selectivity index (CC50/EC50): ~32

## Cc1c(O)cccc1C(=O)N[C@@H](CSc1ccccc1)[C@H](O)CN1C[C@H]2CCCC[C@H]2C[C@H]1C(=O)NC(C)(C)C [nelfinavir, reference compound]
HIV-1 NL4-3
  resistance level reached: compound concentration allowing virus replication, fold higher than the EC50: 16 fold
